Measurements taken from patent US20240254138A1, “TRICYCLIC PYRIMIDINES AS CYCLIN-DEPENDENT KINASE 7 (CDK7) INHIBITORS” (JANSSEN PHARMACEUTICA NV, priority 2021, published 2024).
Read-outs that look alike come from different tables or passages of the source.

Key:
[1] = system: RNA Polymerase II Serine 5 phosphorylation (Rpb1 CTD, downstream substrate of CDK7) in A549 cells; experiment: Imaging-based cellular RNA PolII Ser5 phosphorylation assay in A549 cells; type: cell-based, human; details: wild-type CDK7, RNA PolII Ser5 phosphorylation, averaged over all measurements; for IC50: Homo sapiens, A549, A549 cells, read-out: CDK7_A549 Wild-type CDK7 (pIC50) (converted); for CDK7_A549 Wild-type CDK7 (pIC50): A549 cells
Method in brief: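 A549 cells, seeded 1000/well in DMEM with 1% FBS and cultured 20 h, were treated with compound for 3 h at 37 °C. Ser5-phospho-Rpb1 CTD detected by immunofluorescence imaging after fixation and methanol permeabilization; IC50 from curve fit normalized to DMSO and 10 μM reference-compound controls.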

[2] = system: RNA Polymerase II Serine 5 phosphorylation in A549 cells overexpressing CDK7-mutant (C312S); experiment: Imaging-based cellular RNA PolII Ser5 phosphorylation assay in A549 cells overexpressing CDK7-mutant (C312S); type: cell-based, human; details: RNA PolII Ser5 phosphorylation, averaged over all measurements; for IC50: Homo sapiens, A549, A549 cells overexpressing CDK7-mutant (C312S), read-out: CDK7_A549 mutant hCDK7(pIC50) (converted); for CDK7_A549 mutant hCDK7(pIC50): A549 cells overexpressing CDK7-mutant (C312S)
Method in brief: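 A549 cells overexpressing CDK7 C312S (with endogenous wild-type CDK7) were treated with compound for 3 h at 37 °C in 1% FBS medium. Phospho-Rpb1 CTD Ser5 was immunostained after fixation and imaged. IC50 came from curve fit of % control, normalised to DMSO and 10 μM reference-compound controls.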

[3] = molecular target: CDK7/cyclinH/MAT1 trimeric complex (Homo sapiens, UniProt P50613); experiment: In vitro CDK7 assay, potency of irreversible covalent inhibitors (kinact/KI), coupled PK/LDH ADP readout at 340 nm; details: for Ki: CDK7 (20 nM enz.) (KI, μM); for Ki / CDK7 (20 nM enz.) (kinact, s^−1) / CDK7 (20 nM enz.) (kinact/KI, M^−1*s^−1): 20 nM enzyme; for kinact: read-out: CDK7 (20 nM enz.) (kinact, s^−1), 20 nM enzyme
CDK7/cyclinH/MAT1 trimeric complex, sequence (P50613 whole entry): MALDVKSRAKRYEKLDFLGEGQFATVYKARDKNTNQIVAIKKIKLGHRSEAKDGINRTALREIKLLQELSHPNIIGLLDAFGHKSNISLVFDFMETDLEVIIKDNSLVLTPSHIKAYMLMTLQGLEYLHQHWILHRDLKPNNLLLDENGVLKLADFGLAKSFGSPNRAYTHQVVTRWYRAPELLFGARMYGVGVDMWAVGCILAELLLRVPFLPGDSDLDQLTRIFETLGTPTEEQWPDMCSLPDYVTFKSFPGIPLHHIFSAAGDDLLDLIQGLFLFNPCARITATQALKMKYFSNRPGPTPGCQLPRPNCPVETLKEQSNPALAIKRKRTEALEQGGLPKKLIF
CDK7/cyclinH/MAT1 trimeric complex, sequence (P51946 whole entry partner): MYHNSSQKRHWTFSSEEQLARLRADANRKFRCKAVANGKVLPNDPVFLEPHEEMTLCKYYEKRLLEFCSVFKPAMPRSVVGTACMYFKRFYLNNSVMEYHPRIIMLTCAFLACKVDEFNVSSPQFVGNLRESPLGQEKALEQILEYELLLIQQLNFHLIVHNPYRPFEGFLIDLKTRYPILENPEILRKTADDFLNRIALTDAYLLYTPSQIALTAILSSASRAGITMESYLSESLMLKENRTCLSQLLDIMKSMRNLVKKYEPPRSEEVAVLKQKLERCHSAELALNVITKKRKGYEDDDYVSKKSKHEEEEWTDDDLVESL
CDK7/cyclinH/MAT1 trimeric complex, sequence (P51948 whole entry partner): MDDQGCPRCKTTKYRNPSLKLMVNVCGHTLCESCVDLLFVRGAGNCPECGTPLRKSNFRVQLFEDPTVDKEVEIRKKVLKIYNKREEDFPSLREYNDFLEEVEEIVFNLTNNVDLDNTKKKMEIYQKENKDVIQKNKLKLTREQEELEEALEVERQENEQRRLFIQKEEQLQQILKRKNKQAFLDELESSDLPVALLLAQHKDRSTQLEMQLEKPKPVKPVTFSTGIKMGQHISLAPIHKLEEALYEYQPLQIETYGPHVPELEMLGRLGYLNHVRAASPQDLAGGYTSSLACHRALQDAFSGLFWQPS

[4] = read-out: CDK7 (20 nM enz.) (kinact/KI, M^−1*s^−1), 20 nM enzyme
[5] = read-out: CDK7 (20 nM enz.) (kobs/[I], M^−1*s^−1), 20 nM enzyme

SMILES | IC50 [1] [nM] | IC50 [2] [nM] | Ki [3] [µM] | kinact [3] [s⁻¹] | kinact/KI [3, 4] [M⁻¹ s⁻¹] | CDK7_A549 Wild-type CDK7 (pIC50) [1] | CDK7_A549 mutant hCDK7(pIC50) [2] | CDK7 (20 nM enz.) (kinact, s^−1) [3] [s⁻¹] | CDK7 (20 nM enz.) (kinact/KI, M^−1*s^−1) [3] [M⁻¹ s⁻¹] | kinact/KI [3, 5] [M⁻¹ s⁻¹]
C=CC(=O)N1CC[C@H](N2CC(c3cc4c(c(C)n3)O[C@H](C)c3c(C5CCOCC5)ccnc3N4)C2)C1 (single isomer, unassigned) [Compound 422] | 115 | > 10000 | 0.0415 | 4.6e-05 | 1110 | – | – | – | – | –
CC#CC(=O)N1CC[C@@H](N2CC(c3cc4c(c(C5CC5)n3)OCc3c(N5CCOCC5)ccnc3N4)C2)C1 (single isomer, unassigned) [Compound 425] | 200 | > 10000 | 0.0971 | 2.48e-05 | 255 | – | – | – | – | –
CC#CC(=O)N1CCC(N2CCC(c3cc4c(c(C)n3)O[C@@H](C)c3c(N5CCOCC5)ccnc3N4)CC2)CC1 (single isomer, unassigned) [Compound 426] | 63.1 | > 10000 | 0.642 | 4.43e-05 | 69 | – | – | – | – | –
C=CC(=O)N1CC[C@@H](N2CC(c3cc4c(c(C5CC5)n3)OCc3c(N5CCOCC5)ccnc3N4)C2)C1 (single isomer, unassigned) [Compound 427] | – | – | 0.0447 | – | – | 6.99 | <5 | 7.839e-05 | 1751.84 | –
CC#CC(=O)N1CCC(N2CC[C@@H](c3cc4c(c(C)n3)OCc3c(N5CCOCC5)ccnc3N4)C2)CC1 (single isomer, unassigned) [Compound 433] | 170 | 5370 | 0.185 | 1.89e-05 | 102 | – | – | – | – | –
CC#CC(=O)N1CC(n2cc(-c3cc4c(c(C)n3)O[C@@H](C)c3c(N5CCOCC5)ccnc3N4)cn2)C1 (single isomer, unassigned) [Compound 437] | 170 | > 10000 | 0.0822 | 2.31e-05 | 282 | – | – | – | – | –
CC#CC(=O)N1CC(N2CC(c3cc4c(c(C)n3)O[C@H](C)c3c(N5CCOCC5)ccnc3N4)C2)C1 (single isomer, unassigned) [Compound 440] | – | – | 0.205 | – | – | 6.79 | <5 | 0.000050424 | 246.333 | –
CC#CC(=O)N1CC(N2CCC(c3cc(C#N)c4c(c3)Nc3nccc(N5CCOCC5)c3C(C)O4)CC2)C1 (single isomer, unassigned) [Compound 443] | 20.4 | 4270 | – | – | – | – | – | – | – | 1430
C=CC(=O)N1CC[C@H](N2CC(c3cc4c(c(C5CC5)n3)OCc3c(N5CCOCC5)ccnc3N4)C2)C1 (single isomer, unassigned) [Compound 447] | – | – | 0.143 | – | – | 6.77 | ~5 | 7.882e-05 | 551.654 | –
CC#CC(=O)N1CC(n2cc(-c3cc(C#N)c4c(c3)Nc3nccc(N5CCOCC5)c3[C@H](C)O4)cn2)C1 (single isomer, unassigned) [Compound 449] | 33.1 | 2340 | – | – | – | – | – | – | – | 328
C=CC(=O)N1CC(N2CC[C@H](c3cc4c(c(C)n3)OCc3c(N5CCOCC5)ccnc3N4)N(C)CC2)C1 (single isomer, unassigned) [Compound 452] | 64.6 | 6920 | 0.0493 | 4.92e-05 | 997 | – | – | – | – | –
C=CC(=O)N1CC(N2CC[C@@H](c3cc4c(c(C)n3)OCc3c(N5CCOCC5)ccnc3N4)N(C)CC2)C1 (single isomer, unassigned) [Compound 454] | 257 | > 10000 | 0.245 | 5.68e-05 | 232 | – | – | – | – | –
C=CC(=O)N1CC[C@H](N2CC(c3cc4c(c(C)n3)O[C@H](C)c3c(N5CCOCC5)ccnc3N4)C2)C1 (single isomer, unassigned) [Compound 455] | 91.2 | > 10000 | – | – | 179 | – | – | – | – | –
C=CC(=O)N1CC[C@@H](N2CC(c3cc4c(c(C)n3)O[C@@H](C)c3c(N5CCOCC5)ccnc3N4)C2)C1 (single isomer, unassigned) [Compound 456] | 2880 | > 10000 | 24.6 | 0.000114 | 4.65 | – | – | – | – | –
C=CC(=O)N1CC[C@@H](N2CC(c3cc4c(c(C)n3)O[C@H](C)c3c(N5CCOCC5)ccnc3N4)C2)C1 (single isomer, unassigned) [Compound 457] | 91.2 | > 10000 | 0.214 | 0.000104 | 485 | – | – | – | – | –
C=CC(=O)N1CC[C@H](N2CC(c3cc(C#N)c4c(c3)Nc3nccc(N5CCOCC5)c3[C@@H](C)O4)C2)C1 (single isomer, unassigned) [Compound 459] | 72.4 | 4370 | – | – | – | – | – | – | – | 734
C=CC(=O)N1CC[C@H](N2CC(c3cc4c(c(C5CC5)n3)O[C@H](C)c3c(N5CCOCC5)ccnc3N4)C2)C1 (single isomer, unassigned) [Compound 463] | 1050 | > 10000 | 0.423 | 3.44e-05 | 81.3 | – | – | – | – | –
C=CC(=O)N1CCC(N2CC(c3cc4c(c(C)n3)O[C@H](C)c3c(C5CCOCC5)ccnc3N4)C2)CC1 (single isomer, unassigned) [Compound 465] | 72.4 | 7080 | 0.0329 | 2.79e-05 | 848 | – | – | – | – | –
C=CC(=O)N1CCC(N2CC(c3cc4c(c(C)n3)O[C@@H](C)c3c(C5CCOCC5)ccnc3N4)C2)CC1 (single isomer, unassigned) [Compound 468] | 2040 | > 10000 | 2.21 | 3.64e-05 | 16.5 | – | – | – | – | –
C=CC(=O)N1CC[C@@H](N2CC(c3cc4c(c(C5CC5)n3)O[C@H](C)c3c(N5CCOCC5)ccnc3N4)C2)C1 (single isomer, unassigned) [Compound 469] | 2140 | > 10000 | 1.32 | 4.03e-05 | 30.5 | – | – | – | – | –

The next lines start with the values.

IC50 [1] [nM] | IC50 [2] [nM] | Ki [3] [µM] | kinact [3] [s⁻¹] | kinact/KI [3, 4] [M⁻¹ s⁻¹] | CDK7_A549 Wild-type CDK7 (pIC50) [1] | CDK7_A549 mutant hCDK7(pIC50) [2] | CDK7 (20 nM enz.) (kinact, s^−1) [3] [s⁻¹] | CDK7 (20 nM enz.) (kinact/KI, M^−1*s^−1) [3] [M⁻¹ s⁻¹] | kinact/KI [3, 5] [M⁻¹ s⁻¹] | SMILES
562 | > 10000 | 0.772 | 3.46e-05 | 44.8 | – | – | – | – | – | CC#CC(=O)N1CC(N2CCC(c3cc(C#N)c4c(c3)Nc3nccc(N5CCOCC5)c3[C@H](C)O4)CC2)C1 (single isomer, unassigned) [Compound 442]
123 | 8510 | 0.0844 | 6.94e-05 | 823 | – | – | – | – | – | C=CC(=O)N1CC[C@@H](N2CC(c3cc4c(c(C5CC5)n3)OCc3c(C5CCOCC5)ccnc3N4)C2)C1 (single isomer, unassigned) [Compound 445]
5250 | > 10000 | 19.2 | 6.89e-05 | 3.59 | – | – | – | – | – | C=CC(=O)N1CC[C@H](N2CC(c3cc4c(c(C)n3)O[C@@H](C)c3c(N5CCOCC5)ccnc3N4)C2)C1 (single isomer, unassigned) [Compound 458]
1290 | > 10000 | – | – | 14.4 | – | – | – | – | – | C=CC(=O)N1CC[C@H](N2CC(c3cc(C#N)c4c(c3)Nc3nccc(N5CCOCC5)c3[C@H](C)O4)C2)C1 (single isomer, unassigned) [Compound 460]
692 | > 10000 | – | – | 16.1 | – | – | – | – | – | C=CC(=O)N1CC[C@@H](N2CC(c3cc(C#N)c4c(c3)Nc3nccc(N5CCOCC5)c3[C@H](C)O4)C2)C1 (single isomer, unassigned) [Compound 461]
50.1 | 5250 | – | – | 509 | – | – | – | – | – | C=CC(=O)N1CC[C@@H](N2CC(c3cc(C#N)c4c(c3)Nc3nccc(N5CCOCC5)c3[C@@H](C)O4)C2)C1 (single isomer, unassigned) [Compound 462]
7590 | > 10000 | 4.03 | 2.27e-05 | 5.64 | – | – | – | – | – | CC#CC(=O)N1CC[C@@H](N2CC(c3cc4c(c(C5CC5)n3)O[C@H](C)c3c(N5CCOCC5)ccnc3N4)C2)C1 (single isomer, unassigned) [Compound 464]
123 | > 10000 | 0.0307 | 5.02e-05 | 1630 | – | – | – | – | – | C=CC(=O)N1CC[C@H](N2CC(c3cc4c(c(C5CC5)n3)O[C@@H](C)c3c(N5CCOCC5)ccnc3N4)C2)C1 (single isomer, unassigned) [Compound 466]
117 | > 10000 | 0.0121 | 3.18e-05 | 2630 | – | – | – | – | – | C=CC(=O)N1CC[C@@H](N2CC(c3cc4c(c(C5CC5)n3)O[C@@H](C)c3c(N5CCOCC5)ccnc3N4)C2)C1 (single isomer, unassigned) [Compound 467]
